Assay results from US20260138961A1, “MODULATORS OF MITOCHONDRIAL DNA REPLICATION” (Pretzel Therapeutics, Inc., priority 2022, published 2026).

target: T1, POLγA:G848S (Homo sapiens, UniProt P54098, G848S); experiment: DNA polymerization assay, POLγA:G848S mutant; assay type: biochemical; conditions: stimulation of polymerase activity, primed M13mp18 ssDNA, 37° C. 2 hours; read-out: G848S AC50
T1 sequence (P54098 1-1239 G848S): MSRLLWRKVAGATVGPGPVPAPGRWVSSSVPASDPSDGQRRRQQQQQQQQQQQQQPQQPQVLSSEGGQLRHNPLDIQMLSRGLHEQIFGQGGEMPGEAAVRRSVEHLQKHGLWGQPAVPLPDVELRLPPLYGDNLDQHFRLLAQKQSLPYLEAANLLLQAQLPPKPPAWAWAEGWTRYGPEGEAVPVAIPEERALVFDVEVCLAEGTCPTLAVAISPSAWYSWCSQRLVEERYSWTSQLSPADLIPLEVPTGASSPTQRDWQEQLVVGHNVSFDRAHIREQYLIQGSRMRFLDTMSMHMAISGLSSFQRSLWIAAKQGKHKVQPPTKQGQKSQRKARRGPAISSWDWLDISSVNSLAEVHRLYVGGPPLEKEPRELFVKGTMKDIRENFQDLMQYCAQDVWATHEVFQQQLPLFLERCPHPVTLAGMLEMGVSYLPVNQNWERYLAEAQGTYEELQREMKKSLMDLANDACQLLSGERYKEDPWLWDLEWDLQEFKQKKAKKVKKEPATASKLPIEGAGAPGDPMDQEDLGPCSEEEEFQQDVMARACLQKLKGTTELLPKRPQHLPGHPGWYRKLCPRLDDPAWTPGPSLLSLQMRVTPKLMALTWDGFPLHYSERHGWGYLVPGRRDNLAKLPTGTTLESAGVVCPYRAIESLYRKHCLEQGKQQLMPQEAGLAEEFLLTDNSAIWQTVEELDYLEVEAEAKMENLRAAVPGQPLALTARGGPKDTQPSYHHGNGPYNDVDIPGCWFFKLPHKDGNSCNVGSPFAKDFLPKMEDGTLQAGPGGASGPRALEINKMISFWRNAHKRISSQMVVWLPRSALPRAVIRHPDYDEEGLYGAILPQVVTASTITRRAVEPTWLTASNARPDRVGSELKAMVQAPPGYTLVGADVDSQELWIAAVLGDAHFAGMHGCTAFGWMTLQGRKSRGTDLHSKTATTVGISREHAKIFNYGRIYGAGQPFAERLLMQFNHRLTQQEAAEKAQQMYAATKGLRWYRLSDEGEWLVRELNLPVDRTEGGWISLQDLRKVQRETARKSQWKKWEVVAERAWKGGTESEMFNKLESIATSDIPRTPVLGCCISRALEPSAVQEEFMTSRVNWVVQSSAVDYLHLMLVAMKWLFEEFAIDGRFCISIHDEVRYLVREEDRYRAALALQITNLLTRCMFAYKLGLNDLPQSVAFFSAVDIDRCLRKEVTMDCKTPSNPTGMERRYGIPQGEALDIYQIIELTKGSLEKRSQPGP
T1 sequence (Q9UHN1 1-485 partner): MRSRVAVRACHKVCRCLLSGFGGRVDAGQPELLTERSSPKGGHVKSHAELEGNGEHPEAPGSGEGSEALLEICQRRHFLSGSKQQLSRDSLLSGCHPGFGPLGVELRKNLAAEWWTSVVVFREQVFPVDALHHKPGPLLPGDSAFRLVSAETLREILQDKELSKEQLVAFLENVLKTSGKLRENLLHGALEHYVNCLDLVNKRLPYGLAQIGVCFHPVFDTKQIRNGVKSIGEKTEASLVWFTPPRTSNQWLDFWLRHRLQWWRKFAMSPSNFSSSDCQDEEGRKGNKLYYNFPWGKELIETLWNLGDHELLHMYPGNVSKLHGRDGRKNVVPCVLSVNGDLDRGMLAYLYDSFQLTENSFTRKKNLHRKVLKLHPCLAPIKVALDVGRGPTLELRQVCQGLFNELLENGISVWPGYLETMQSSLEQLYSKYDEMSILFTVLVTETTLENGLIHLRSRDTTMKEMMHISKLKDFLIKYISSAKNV

AC50 [µM]	Structure (SMILES)
9	Cc1cnc(-c2cc(NS(=O)(=O)c3cc(C)c(Cl)cc3C)ccc2C)s1 [Example 103, 4-chloro-2,5-dimethyl-N-(4-methyl-3-(5-methylthiazol-2-yl)phenyl)benzenesulfonamide]
3	Cc1cc(S(=O)(=O)Nc2nsc(-c3ccccc3)n2)c(C)cc1Cl [Example 131, 4-chloro-2,5-dimethyl-N-(5-phenyl-1,2,4-thiadiazol-3-yl)benzenesulfonamide]
3	Cc1cc(S(=O)(=O)Nc2cccc(-c3nccn3C)c2)c(C)cc1Cl [Example 19, 4-chloro-2,5-dimethyl-N-(3-(1-methyl-1H-imidazol-2-yl)phenyl)benzenesulfonamide]
40	Cc1cc(S(=O)(=O)Nc2cccc(C(=O)N(C(C)C)C3COC3)c2)c(C)cc1Cl [Example 112, 3-((4-chloro-2,5-dimethylphenyl)sulfonamido)-N-isopropyl-N-(oxetan-3-yl)benzamide]
50	Cc1cc(S(=O)(=O)Nc2cccc(C(=O)N3CCc4ncnc(C)c4C3)c2)c(C)cc1Cl [Example 114, 4-chloro-2,5-dimethyl-N-(3-(4-methyl-5,6,7,8-tetrahydropyrido [4,3-d]pyrimidine-6-carbonyl)phenyl)benzenesulfonamide]
> 100	O=S(=O)(Nc1csc(-c2ccccc2)n1)c1ccc(Cl)cc1 [Example 120, 4-chloro-N-(2-phenylthiazol-4-yl)benzenesulfonamide]
18	Cc1cc(S(=O)(=O)Nc2cccc(C(=O)N3CCC[C@@H]3C)c2)c(C)cc1Cl [Example 133, (S)-4-chloro-2,5-dimethyl-N-(3-(2-methylpyrrolidine-1-carbonyl)phenyl)benzenesulfonamide]
> 100	Cc1cc(S(=O)(=O)N[C@H]2CCCN(C(=O)[C@H]3CCCN3C)C2)c(C)cc1Cl [Example 95, 4-chloro-2,5-dimethyl-N-((S)-1-(methyl-D-prolyl)piperidin-3-yl)benzenesulfonamide]
> 100	Cc1cc(S(=O)(=O)N[C@@H]2CCCN(c3ccccc3)C2)c(C)cc1Cl [Example 149, (R)-4-chloro-2,5-dimethyl-N-(1-phenylpiperidin-3-yl)benzenesulfonamide]
> 100	Cc1cc(S(=O)(=O)N[C@@H]2CCCN(C(=O)c3ccccc3)C2)c(C)cc1Cl [Example 150, (R)-N-(1-benzoylpiperidin-3-yl)-4-chloro-2,5-dimethylbenzenesulfonamide]
6	O=S(=O)(Nc1csc(-c2ccccc2)n1)c1ccc2c(c1)CCO2 [Example 152, N-(2-phenylthiazol-4-yl)-2,3-dihydrobenzofuran-5-sulfonamide]
> 100	Cc1cc(S(=O)(=O)Nc2nc(-c3ccccc3)ns2)c(C)cc1Cl [Example 132, 4-chloro-2,5-dimethyl-N-(3-phenyl-1,2,4-thiadiazol-5-yl)benzenesulfonamide]
> 100	Cc1nc2c(NS(=O)(=O)c3cc(C)c(Cl)cc3C)cccc2s1 [Example 99, 4-chloro-2,5-dimethyl-N-(2-methylbenzo[d]thiazol-4-yl)benzenesulfonamide]
2	Cc1cc(F)ccc1S(=O)(=O)Nc1csc(-c2ccccc2)n1 [Example 124, 4-fluoro-2-methyl-N-(2-phenylthiazol-4-yl)benzenesulfonamide]
1	Cc1cc(S(=O)(=O)Nc2cccc(-c3ncc(C(N)=O)s3)c2)c(C)cc1Cl [Example 92, 2-(3-((4-chloro-2,5-dimethylphenyl)sulfonamido)phenyl) thiazole-5-carboxamide]
9	Cc1cc(S(=O)(=O)Nc2cccc(C(=O)N3CCCC4(CC4)C3)c2)c(C)cc1Cl [Example 105, N-(3-(5-azaspiro[2.5]octane-5-carbonyl)phenyl)-4-chloro-2,5-dimethylbenzenesulfonamide]
2	Cc1cc(Cl)ccc1S(=O)(=O)Nc1csc(-c2ccccc2)n1 [Example 135, 4-chloro-2-methyl-N-(2-phenylthiazol-4-yl)benzenesulfonamide]
> 100	O=S(=O)(Nc1csc(-c2ccccc2)n1)c1ccc(Cl)cc1Cl [Example 138, 2,4-dichloro-N-(2-phenylthiazol-4-yl)benzenesulfonamide]
> 100	O=S(=O)(Nc1csc(-c2ccccc2)n1)c1cccnc1 [Example 121, N-(2-phenylthiazol-4-yl)pyridine-3-sulfonamide]
> 100	Cc1cc(S(=O)(=O)Nc2cccc(C(=O)N3C[C@H](C)[C@@H](N)C3)c2)c(C)cc1Cl [Example 108, N-(3-((3R,4S)-3-amino-4-methylpyrrolidine-1-carbonyl)phenyl)-4-chloro-2,5-dimethylbenzenesulfonamide]
> 100	Cc1cc(S(=O)(=O)Nc2cccc(C(=O)N3CCC[C@H]3C)c2)ccc1Cl [Example 117, (R)-4-chloro-3-methyl-N-(3-(2-methylpyrrolidine-1-carbonyl)phenyl)benzenesulfonamide]
16	Cc1cc(S(=O)(=O)Nc2cccc(C(=O)N(C)C(C)CO)c2)c(C)cc1Cl (single isomer, unassigned) [Example 14, 3-((4-chloro-2,5-dimethylphenyl)sulfonamido)-N-(1-hydroxypropan-2-yl)-N-methylbenzamide]
2	Cc1cc(S(=O)(=O)Nc2cccc(C(=O)N3CCCC3)c2)c(C)cc1Cl [Example 119, 4-chloro-2,5-dimethyl-N-(3-(pyrrolidine-1-carbonyl)phenyl) benzenesulfonamide]
1	Cc1ccc(C)c(S(=O)(=O)Nc2csc(-c3ccccc3)n2)c1 [Example 134, 2,5-dimethyl-N-(2-phenylthiazol-4-yl)benzenesulfonamide]
> 100	Cc1cc(S(=O)(=O)N[C@H]2CCCN(C(=O)c3ccccc3)C2)c(C)cc1Cl [Example 129, (S)-N-(1-benzoylpiperidin-3-yl)-4-chloro-2,5-dimethylbenzenesulfonamide]
2	Cc1ccc(S(=O)(=O)Nc2csc(-c3ccccc3)n2)c(C)c1 [Example 123, 2,4-dimethyl-N-(2-phenylthiazol-4-yl)benzenesulfonamide]
> 100	C[C@@H]1CCCN1C(=O)c1cccc(NS(=O)(=O)c2ccc(C(F)(F)F)cc2)c1 [Example 118, (R)-N-(3-(2-methylpyrrolidine-1-carbonyl)phenyl)-4-(trifluoromethyl)benzenesulfonamide]
